{"source": "the supplement of paper PMC10307832", "assay_in_all_cases": "relative viability (nuclei count vs DMSO), 5 days (fraction); higher = more cells survive", "key": {"EKVX": {"test_system": "EKVX", "method_in_brief": "(§1)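 Cells from lung cancer lines were seeded into 1536-well plates and, one day later, dosed by pin tool. Treatments were either a single drug or a fixed dose of an anchor drug with five library-drug doses (not always all listed) in √10 steps. After 5 days, nuclei were stained in a one-step fixation (final 0.05% Triton X-100, 1% formaldehyde, 1 ug/ml Hoechst) and counted on 4× images, and relative viability is the treated-to-vehicle nuclei ratio, as the median of duplicate plates.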"}, "BEN": {"test_system": "BEN", "method_in_brief": "as §1"}, "NCI-H727": {"test_system": "NCI-H727", "method_in_brief": "as §1"}, "NCI-H2170": {"test_system": "NCI-H2170", "method_in_brief": "as §1"}, "LK-2": {"test_system": "LK-2", "method_in_brief": "as §1"}, "NCI-H1944": {"test_system": "NCI-H1944", "method_in_brief": "as §1"}, "NCI-H1666": {"test_system": "NCI-H1666", "method_in_brief": "as §1"}, "LOU-NH91": {"test_system": "LOU-NH91", "method_in_brief": "as §1"}, "LCLC-103H": {"test_system": "LCLC-103H", "method_in_brief": "as §1"}, "ChaGo-K-1": {"test_system": "ChaGo-K-1", "method_in_brief": "as §1"}, "HOP-62": {"test_system": "HOP-62", "method_in_brief": "as §1"}, "NCI-H441": {"test_system": "NCI-H441", "method_in_brief": "as §1"}}, "data": [{"smiles": "CN1CCN(CCOc2cc(OC3CCOCC3)c3c(Nc4c(Cl)ccc5c4OCO5)ncnc3c2)CC1", "note": "[Saracatinib] + Cc1nc(Nc2ncc(C(=O)Nc3c(C)cccc3Cl)s2)cc(N2CCN(CCO)CC2)n1 [Dasatinib] (partner 0.075 µM)", "values": [{"measurement": "relative viability", "setting": "EKVX; first compound 0.2 µM", "value": 0.363}, {"measurement": "relative viability", "setting": "EKVX; first compound 0.6325 µM", "value": 0.622}, {"measurement": "relative viability", "setting": "EKVX; first compound 2 µM", "value": 0.364}, {"measurement": "relative viability", "setting": "BEN; first compound 0.02 µM", "value": 0.329}, {"measurement": "relative viability", "setting": "BEN; first compound 0.6325 µM", "value": 0.373}, {"measurement": "relative viability", "setting": "BEN; first compound 2 µM", "value": 0.418}, {"measurement": "relative viability", "setting": "NCI-H727; first compound 0.02 µM", "value": 0.396}, {"measurement": "relative viability", "setting": "NCI-H727; first compound 0.2 µM", "value": 0.377}, {"measurement": "relative viability", "setting": "NCI-H727; first compound 0.6325 µM", "value": 0.564}, {"measurement": "relative viability", "setting": "NCI-H727; first compound 2 µM", "value": 0.356}, {"measurement": "relative viability", "setting": "NCI-H2170; first compound 0.02 µM", "value": 0.766}, {"measurement": "relative viability", "setting": "NCI-H2170; first compound 0.2 µM", "value": 0.486}, {"measurement": "relative viability", "setting": "NCI-H2170; first compound 0.6325 µM", "value": 0.548}, {"measurement": "relative viability", "setting": "NCI-H2170; first compound 2 µM", "value": 0.265}, {"measurement": "relative viability", "setting": "LK-2; first compound 0.02 µM", "value": 0.275}, {"measurement": "relative viability", "setting": "LK-2; first compound 0.2 µM", "value": 0.288}, {"measurement": "relative viability", "setting": "LK-2; first compound 0.6325 µM", "value": 0.345}, {"measurement": "relative viability", "setting": "LK-2; first compound 2 µM", "value": 0.376}, {"measurement": "relative viability", "setting": "NCI-H1944; first compound 0.02 µM", "value": 0.219}, {"measurement": "relative viability", "setting": "NCI-H1944; first compound 0.6325 µM", "value": 0.182}, {"measurement": "relative viability", "setting": "NCI-H1944; first compound 2 µM", "value": 0.181}, {"measurement": "relative viability", "setting": "NCI-H1666; first compound 0.02 µM", "value": 0.772}, {"measurement": "relative viability", "setting": "NCI-H1666; first compound 0.2 µM", "value": 0.87}, {"measurement": "relative viability", "setting": "NCI-H1666; first compound 0.6325 µM", "value": 0.967}, {"measurement": "relative viability", "setting": "NCI-H1666; first compound 2 µM", "value": 0.875}, {"measurement": "relative viability", "setting": "LOU-NH91; first compound 0.02 µM", "value": 0.507}, {"measurement": "relative viability", "setting": "LOU-NH91; first compound 0.2 µM", "value": 0.429}, {"measurement": "relative viability", "setting": "LOU-NH91; first compound 0.6325 µM", "value": 0.418}, {"measurement": "relative viability", "setting": "LOU-NH91; first compound 2 µM", "value": 0.419}, {"measurement": "relative viability", "setting": "LCLC-103H; first compound 0.02 µM", "value": 0.475}, {"measurement": "relative viability", "setting": "LCLC-103H; first compound 0.2 µM", "value": 0.496}, {"measurement": "relative viability", "setting": "LCLC-103H; first compound 0.6325 µM", "value": 0.466}, {"measurement": "relative viability", "setting": "LCLC-103H; first compound 2 µM", "value": 0.515}, {"measurement": "relative viability", "setting": "ChaGo-K-1; first compound 0.02 µM", "value": 0.732}, {"measurement": "relative viability", "setting": "ChaGo-K-1; first compound 0.2 µM", "value": 0.431}, {"measurement": "relative viability", "setting": "ChaGo-K-1; first compound 0.6325 µM", "value": 0.657}, {"measurement": "relative viability", "setting": "ChaGo-K-1; first compound 2 µM", "value": 0.459}, {"measurement": "relative viability", "setting": "HOP-62; first compound 0.02 µM", "value": 0.757}, {"measurement": "relative viability", "setting": "HOP-62; first compound 0.2 µM", "value": 0.663}, {"measurement": "relative viability", "setting": "HOP-62; first compound 0.6325 µM", "value": 0.766}, {"measurement": "relative viability", "setting": "HOP-62; first compound 2 µM", "value": 0.636}, {"measurement": "relative viability", "setting": "NCI-H441; first compound 0.02 µM", "value": 0.615}, {"measurement": "relative viability", "setting": "NCI-H441; first compound 0.2 µM", "value": 0.442}, {"measurement": "relative viability", "setting": "NCI-H441; first compound 0.6325 µM", "value": 0.715}, {"measurement": "relative viability", "setting": "NCI-H441; first compound 2 µM", "value": 0.549}]}]}
